Literature values in publication PMC10177510, “A Multicenter, Open-Label, Phase I/II Study of FN-1501 in Patients with Advanced Solid Tumors” (Cancers, 2023).
≈ marks a conversion by molar mass, not a printed value.

Tested on: MV-4-11
Settings: cited from earlier work

**Q.** Which IC50 does the source give for `CCc1nc(C(N)=O)c(Nc2ccc(N3CCC(N4CCN(C)CC4)CC3)c(OC)c2)nc1NC1CCOCC1` [gilteritinib, reference compound] here?
**A.** The IC50 was 0.5 ng/mL (≈ 0.905 nM).
